These results are taken from patent US8114602B2 (priority 2003, dated 2012).

Where “and” joins values, the source holds several entries; their conditions need not be identical. Equal entries are not always repeated. Entries after “also recorded” stand apart in the source; their conditions may differ.

In assay [1] the target is GM1. In kind it is binding, bovine. As to conditions: read-out: effective dissociation constant.
In assay [2] the test system is membranes free of GM1 and GTIB. In kind it is binding.
Assay [3] concerns GM1. The class given is binding, bovine. Set-up: Ei (effective interaction energy): unit not given here.
For assay [4], the system named is GTIB. The class given is binding, bovine.
The target in assay [5] is GTIB. In kind it is binding, bovine. As to conditions: read-out: effective dissociation constant.

For Cholera Toxin B-subunit [CTB], the Kd at GM1 [1] is ~41 nM and ~60 nM. Moreover, in assay [2], the “Ei (effective interaction energy)” value was 2.52 ± 0.09 and the “detection signal / binding in selectivity series” value is listed as “Negative signals; also recorded: absence of binding”. Moreover, in the assay with GM1 [3], the “Ei (effective interaction energy)” value is on record as 0.56 ± 0.12, the “colloidal phase response (condensed to dispersed transition)” value (shortened to “colloidal phase response”) is reported as “triggered the transition to a dispersed phase; also recorded: induces the transition”, the “detection signal / binding in selectivity series” value is listed as “positive signal; also recorded: detected binding” and the “first peak in the g(r) plot” value is given as “noticeably absent”. Also, in the assay on GTIB [4], the “Ei (effective interaction energy)” value is 2.47 ± 0.09 and the “colloidal phase response” value is reported as “without producing any effect; also recorded: no effect”.
As to tetanus toxin [TT], the Kd on GTIB [5] is ~60 nM and ~41 nM. In addition, in assay [2], the “Ei (effective interaction energy)” value came out at 2.61 ± 0.05 and the “detection signal / binding in selectivity series” value is “Negative signals”. In the assay with GM1 [3], the “Ei (effective interaction energy)” value turned out to be 2.63 ± 0.05, the “colloidal phase response” value is listed as “no effect” and the “detection signal / binding in selectivity series” value was “Negative signals”. In the assay on GTIB [4], the “colloidal phase response” value is “triggered formation of a dispersed phase; also recorded: induces a condensed to dispersed phase transition”, the “detection signal / binding in selectivity series” value is reported as “positive signal; also recorded: detected binding” and the “first peak in the g(r) plot” value is given as “noticeably absent”.
For the substance α-Bungarotoxin [BT], in assay [2], the “Ei (effective interaction energy)” value amounted to 2.67 ± 0.10 and the “detection signal / binding in selectivity series” value was “Negative signals”. Besides, in the assay on GM1 [3], the “Ei (effective interaction energy)” value came out at 2.84 ± 0.02 and the “colloidal phase response” value is on record as “no effect”. In the assay with GTIB [4], the “Ei (effective interaction energy)” value is listed as 2.71 ± 0.08 and the “colloidal phase response” value is listed as “no effect”.
